Reference: patent publication US9365522B2, “Pyrazole amide derivative” (AMGEN INC., priority 2015, dated 2016)

molecular target: T1, ligand binding domain of human ROR gamma (Homo sapiens, UniProt P51449); assay: ROR gamma reporter gene assay (GAL4-RORγ LBD luciferase, Dual-Glo); format: cell-based; settings: HEK293T cells transfected with pM-ROR gamma, 8 concentrations 3.5 nM to 10.5 μM, 24 h incubation; read-out: result (pIC50, inhibition of RORγ transcriptional activity) (converted)
T1 construct: NM_001001523; expressed in transfected cells; host or cells: HEK293T
T1 sequence (P51449 247-497 isoform P51449-2): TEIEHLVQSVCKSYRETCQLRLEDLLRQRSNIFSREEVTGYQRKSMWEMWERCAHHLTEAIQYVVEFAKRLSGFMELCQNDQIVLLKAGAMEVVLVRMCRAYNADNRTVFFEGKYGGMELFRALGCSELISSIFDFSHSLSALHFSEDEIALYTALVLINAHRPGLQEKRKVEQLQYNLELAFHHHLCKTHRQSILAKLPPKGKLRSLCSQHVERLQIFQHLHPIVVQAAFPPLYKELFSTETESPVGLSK
How it was run: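 First, HEK293T cells are transfected with the GAL4–RORγ LBD construct, a 5×UAS luciferase reporter and a constitutive renilla control. Next, test compounds are added over eight concentrations (3.5 nM to 10.5 μM). After 24 h at 37 °C, Dual-Glo luminescence is measured and pIC50 fitted.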

Q: For `CC1(C)[C@@H]2C[C@H](N(CCc3c[nH]c4cncc(Cl)c34)C(=O)c3cnn([C@H]4CC[C@](C)(C(=O)O)CC4)c3C(F)(F)F)C[C@@H]21` [Example 380, trans-4-(4-((2-(4-chloro-1H -pyrrolo(2,3-c)pyridin-3-yl)ethyl)((1R,3r,5S)-6,6-dimethylbicyclo[3.1.0]hexan-3-yl)carbamoyl)-5-(trifluoromethyl)-1H-pyrazol-1-yl)-1-methylcyclohexanecarboxylic acid], which IC50 is on record?
A: The IC50 was 83200 pM.

Q: With `CC1(C)CC(CN(CC(=O)c2c(Cl)cncc2Cl)C(=O)c2cnn([C@H]3CC[C@](C)(C(=O)O)CC3)c2Cl)C1` [Example 381, trans-4-(5-chloro-4-((2-(3,5-dichloropyridin-4-yl)-2-oxoethyl)-((3,3-dimethylcyclobutyl)methyl)carbamoyl)pyrazol-1-yl)-1-methylcyclohexane-1-carboxylic acid] as the compound, how does the IC50 read?
A: Its IC50 is 100000 pM.

Q: `Cc1c(C(=O)N(CC(=O)c2c(Cl)cncc2Cl)CC2CC(C)(C)C2)cnn1[C@H]1CC[C@](C)(C(=O)O)CC1` [Example 382, trans-4-(4-((2-(3,5-dichloropyridin-4-yl)-2-oxoethyl)-((3,3-dimethylcyclobutyl)methyl)carbamoyl)-5-methylpyrazol-1-yl)-1-methylcyclohexane-1-carboxylic acid] was tested. Which IC50 did it give?
A: Its IC50 is 257000 pM.

Q: `CC1(C)[C@@H]2C[C@H](N(C[C@H](O)c3c(F)cncc3Cl)C(=O)c3cnn([C@H]4CC[C@](C)(C(=O)O)CC4)c3C(F)(F)F)C[C@@H]21` [Example 383, trans-4-(4-((2-(3-chloro-5-fluoropyridin-4-yl)-2-hydroxyethyl)((1R,3r,5S)-6,6-dimethylbicyclo[3.1.0]hexan-3-yl)carbamoyl)-5-(trifluoromethyl)-1H-pyrazol-1-yl)-1-methylcyclohexanecarboxylic acid] was tested. Which IC50 did it give?
A: Its IC50 is 39800 pM.

Q: How did the IC50 turn out when `CC1(C)[C@@H]2C[C@H](N(C[C@@H](O)c3c(F)cncc3Cl)C(=O)c3cnn([C@H]4CC[C@](C)(C(=O)O)CC4)c3C(F)(F)F)C[C@@H]21` [Example 384, trans-4-(4-((2-(3-chloro-5-fluoropyridin-4-yl)-2-hydroxyethyl)((1R,3r,5S)-6,6-dimethylbicyclo[3.1.0]hexan-3-yl)carbamoyl)-5-(trifluoromethyl)-1H-pyrazol-1-yl)-1-methylcyclohexanecarboxylic acid] was run?
A: The IC50 was 347000 pM.

Q: Which IC50 does the source give for `CC1(C)[C@@H]2C[C@H](N(CC(=O)c3c(Cl)cccc3Cl)C(=O)c3cnn([C@H]4CC[C@](C)(C(=O)O)CC4)c3C3CC3)C[C@@H]21` [Example 385, trans-4-(5-cyclopropyl-4-((2-(2,6-dichlorophenyl)-2-oxoethyl)((1R,3r,5S)-6,6-dimethylbicyclo[3.1.0]hexan-3-yl)carbamoyl)-1H-pyrazol-1-yl)-1-methylcyclohexanecarboxylic acid] here?
A: The IC50 was 18600 pM.

Q: With `CC12CCC(CN(CC(=O)c3c(Cl)cncc3Cl)C(=O)c3cnn([C@H]4CC[C@](C)(C(=O)O)CC4)c3Cl)(CC1)O2` [Example 386, trans-4-(5-chloro-4-((2-(3,5-dichloropyridin-4-yl)-2-oxoethyl)-((1-methyl-7-oxabicyclo[2.2.1]heptan-4-yl)methyl)carbamoyl)pyrazol-1-yl)-1-methylcyclohexane-1-carboxylic acid] as the compound, how does the IC50 read?
A: Its IC50 is 141000 pM.

Q: Which IC50 does the source give for `Cc1cncc(Cl)c1C(=O)CN(C(=O)c1cnn([C@H]2CC[C@](C)(C(=O)O)CC2)c1C(F)(F)F)[C@H]1C[C@@H]2[C@H](C1)C2(C)C` [Example 387, trans-4-(4-((2-(3-chloro-5-methylpyridin-4-yl)-2-oxoethyl)((1R,3r,5S)-6,6-dimethylbicyclo[3.1.0]hexan-3-yl)carbamoyl)-5-{trifluoromethyl)-1H-pyrazol-1-yl)-1-methylcyclohexanecarboxylic acid] here?
A: The IC50 was 69200 pM.

Q: Which IC50 does the source give for `C[C@]1(C(=O)O)CC[C@H](n2ncc(C(=O)N(CC(=O)c3c(Cl)cncc3Cl)CC3(C(F)(F)F)CC3)c2Cl)CC1` [Example 388, trans-4-(5-chloro-4-((2-(3,5-dichloropyridin-4-yl)-2-oxoethyl)-((1-(trifluoromethyl)cyclopropyl)methyl)carbamoyl)pyrazol-1-yl)-1-methylcyclohexane-1-carboxylic acid] here?
A: The IC50 was 72400 pM.

Q: Which IC50 does the source give for `CC1(C)CCC(N(CC(=O)c2c(Cl)cccc2Cl)C(=O)c2cnn([C@H]3CC[C@](C)(C(=O)O)CC3)c2Cl)CC1` [Example 389, trans-4-(5-chloro-4-((2-(2,6-dichlorophenyl)-2-oxoethyl)-(4,4-dimethylcyclohexyl)carbamoyl)pyrazol-1-yl)-1-methylcyclohexane-1-carboxylic acid] here?
A: Its IC50 is 29500 pM.

Q: How did the IC50 turn out when `CC1(C)[C@@H]2C[C@H](N(C[C@H](O)c3ncccc3Cl)C(=O)c3cnn([C@H]4CC[C@](C)(C(=O)O)CC4)c3C(F)(F)F)C[C@@H]21` [Example 390, trans-4-(4-((2-(3-chloropyridin-2-yl)-2-hydroxyethyl)((1R,3r,5S)-6,6-dimethylbicyclo[3.1.0]hexan-3-yl)carbamoyl)-5-(trifluoromethyl)-1H-pyrazol-1-yl)-1-methylcyclohexanecarboxylic acid] was run?
A: Its IC50 is 331000 pM.

Q: Which IC50 does the source give for `CC1(C)[C@@H]2C[C@H](N(C[C@@H](O)c3ncccc3Cl)C(=O)c3cnn([C@H]4CC[C@](C)(C(=O)O)CC4)c3C(F)(F)F)C[C@@H]21` [Example 391, trans-4-(4-((2-(3-chloropyridin-2-yl)-2-hydroxyethyl)((1R,3r,5S)-6,6-dimethylbicyclo[3.1.0]hexan-3-yl)carbamoyl)-5-(trifluoromethyl)-1H-pyrazol-1-yl)-1-methylcyclohexanecarboxylic acid] here?
A: The IC50 was 141000 pM.

Q: Which IC50 does the source give for `Cc1[nH]c2cccc(Cl)c2c1CCN(C(=O)c1cnn([C@H]2CC[C@](C)(C(=O)O)CC2)c1C(F)(F)F)[C@H]1C[C@@H]2[C@H](C1)C2(C)C` [Example 392, trans-4-(4-((2-(4-chloro-2-methyl-1H-indol-3-yl)ethyl)((1R,3r,5S)-6,6-dimethylbicyclo[3.1.0]hexan-3-yl)carbamoyl)-5-(trifluoromethyl)-1H-pyrazol-1-yl)-1-methylcyclohexanecarboxylic acid] here?
A: Its IC50 is 28800 pM.

Q: With `CC1(C)[C@@H]2C[C@H](N(C[C@@](C)(O)c3ccccc3Cl)C(=O)c3cnn([C@H]4CC[C@](C)(C(=O)O)CC4)c3C(F)(F)F)C[C@@H]21` [Example 393, trans-4-(4-((2-(2-chlorophenyl)-2-hydroxypropyl)((1R,3r,5S)-6,6-dimethylbicyclo[3.1.0]hexan-3-yl)carbamoyl)-5-(trifluoromethyl)-1H -pyrazol-1-yl)-1-methylcyclohexanecarboxylic acid] as the compound, how does the IC50 read?
A: The IC50 was 4.57e+06 pM.

Q: `CCC(F)(CC)CN(CC(=O)c1c(Cl)cncc1Cl)C(=O)c1cnn([C@H]2CC[C@](C)(C(=O)O)CC2)c1C(F)(F)F` [Example 394, trans-4-(4-((2-(3,5-dichloropyridin-4-yl)-2-oxoethyl)-(2-ethyl-2-fluorobutyl)carbamoyl)-5-(trifluoromethyl)pyrazol-1-yl)-1-methylcyclohexane-1-carboxylic acid] was tested. Which IC50 did it give?
A: Its IC50 is 20400 pM.

Q: `CCC(F)(CC)CN(CC(=O)c1c(Cl)cncc1Cl)C(=O)c1cnn([C@H]2CC[C@](C)(C(=O)O)CC2)c1Cl` [Example 395, trans-4-(5-chloro-4-((2-(3,5-dichloropyridin-4-yl)-2-oxoethyl)-(2-ethyl-2-fluorobutyl)carbamoyl)pyrazol-1-yl)-1-methylcyclohexane-1-carboxylic acid] was tested. Which IC50 did it give?
A: Its IC50 is 91200 pM.

Q: For `CC1(C)[C@@H]2C[C@H](N(C[C@H](O)c3sccc3Cl)C(=O)c3cnn([C@H]4CC[C@](C)(C(=O)O)CC4)c3C(F)(F)F)C[C@@H]21` [Example 396, trans-4-(4-((2-(3-chlorothiophen-2-yl)-2-hydroxyethyl)((1R,3r,5S)-6,6-dimethylbicyclo[3.1.0]hexan-3-yl)carbamoyl)-5-(trifluoromethyl)-1H-pyrazol-1-yl)-1-methylcyclohexanecarboxylic acid], which IC50 is on record?
A: The IC50 was 891000 pM.

Q: With `CC1(C)[C@@H]2C[C@H](N(C[C@@H](O)c3sccc3Cl)C(=O)c3cnn([C@H]4CC[C@](C)(C(=O)O)CC4)c3C(F)(F)F)C[C@@H]21` [Example 397, trans-4-(4-((2-(3-chlorothiophen-2-yl)-2-hydroxyethyl)((1R,3r,5S)-6,6-dimethylbicyclo[3.1.0]hexan-3-yl)carbamoyl)-5-(trifluoromethyl)-1H-pyrazol-1-yl)-1-methylcyclohexanecarboxylic acid] as the compound, how does the IC50 read?
A: The IC50 was 61700 pM.

Q: With `CC1(C)[C@@H]2C[C@H](N(CC(=O)c3ncccc3Cl)C(=O)c3cnn([C@H]4CC[C@](C)(C(=O)O)CC4)c3C(F)(F)F)C[C@@H]21` [Example 398, trans-4-(4-((2-(3-chloropyridin-2-yl)-2-oxoethyl)((1R,3r,5S}-6,6-dimethylbicyclo[3.1.0]hexan-3-yl)carbamoyl)-5-(trifluoromethyl)-1H -pyrazol-1-yl)-1-methylcyclohexanecarboxylic acid] as the compound, how does the IC50 read?
A: The IC50 was 676000 pM.

Q: `CC1(C)[C@@H]2C[C@H](N(CC(O)c3c(Cl)cccc3OC(F)F)C(=O)c3cnn([C@H]4CC[C@](C)(C(=O)O)CC4)c3C(F)(F)F)C[C@@H]21` (stereo partly drawn) [Example 399, trans-4-(4-((2-(2-chloro-6-(difluoromethoxy)phenyl)-2-hydroxyethyl)((1R,3r,5S)-6,6-dimethylbicyclo[3.1.0]hexan-3-yl)carbamoyl)-5-(trifluoromethyl)-1H-pyrazol-1-yl)-1-methylcyclohexanecarboxylic acid] was tested. Which IC50 did it give?
A: The IC50 was 87100 pM.
